In patent EP0677039B1, “CYCLOBUTANE DERIVATIVES AS INHIBITORS OF […] SYNTHETASE AND PROTEIN […]” (Abbott Laboratories, priority 1993, dated 1995):

Columns and labels:
[1] = system: Cholesterol Synthesis; experiment: In vivo inhibition of cholesterol synthesis; conditions: Cynomolgus monkeys, 2 males and 2 females per group, 20 mg/kg, po, daily for a total of 5 days; average
Description: Monkeys, Cynomolgus, 2 males and 2 females per group, Controls: 3.7-6.1 Kg body weight, Dosed animals: 4.8-5.6 Kg body weight) were fasted overnight and bled in the morning. Plasma samples were prepared and analyzed for total cholesterol, HDL-cholesterol and triglycerides. […] Dosing was continued daily for a total of 5 days. Prior to the last dose the animals were fasted overnight and bled after dosing but before feeding. Plasma samples (anticoagulated with EDTA) were prepared and analyzed as before. One-sample t-tests were calculated to test for significant change within a group across the experiment.

[2] = biological target: T1, Rat liver microsomal squalene synthetase (Rattus norvegicus, UniProt Q02769); experiment: In vitro inhibition of squalene synthetase; type: biochemical; conditions: rat liver microsomes, labelled farnesyl pyrophosphate, 10 minutes at 37 °C; for inhibition at 1 µM / % Inhibition at 1 µM: values marked * in Table 1: 1 µM test compound
T1 construct: Rat liver microsome, the source of enzyme; from tissue; host or cells: rat liver microsomes
T1 sequence (Q02769 1-416): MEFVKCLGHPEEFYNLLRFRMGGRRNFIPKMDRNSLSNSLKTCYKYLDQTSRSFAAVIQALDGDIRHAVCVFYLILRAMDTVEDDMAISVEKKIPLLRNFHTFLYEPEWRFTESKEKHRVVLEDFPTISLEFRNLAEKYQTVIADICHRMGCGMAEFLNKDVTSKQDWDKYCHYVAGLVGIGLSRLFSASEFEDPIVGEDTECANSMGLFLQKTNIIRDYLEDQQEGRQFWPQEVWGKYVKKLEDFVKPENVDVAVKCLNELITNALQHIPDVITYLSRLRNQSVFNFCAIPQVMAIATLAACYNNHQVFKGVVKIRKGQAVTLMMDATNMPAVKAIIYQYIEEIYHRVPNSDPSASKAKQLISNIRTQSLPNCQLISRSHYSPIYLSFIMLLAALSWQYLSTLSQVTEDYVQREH
Summary of the method: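 Percent inhibition at 10 µM (or 1 µM), against controls without compound, was scored from radioactive squalene formed from labelled farnesyl pyrophosphate by rat liver microsomal enzyme. Incubations were kept oxygen-free with nitrogen and stopped with ethanolic KOH; squalene was isolated by hexane extraction and an alumina column.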

inhibition at 1 µM [2] [%] | % Inhibition at 1 µM [2] | Compound | also measured
– | – | CCCN(Cc1ccc(Oc2ccccc2)cc1)C(=O)[C@H]1[C@@H](C(=O)O)[C@H](C(=O)O)[C@@H]1C(=O)N(CCC)Cc1ccc(Oc2ccccc2)cc1 (racemic) [Example 17, (1α,2β,3β,4α)-1,2-Di[N-propyl-N-(4-phenoxybenzyl)aminocarbonyl]cyclobutane-3,4-dicarboxylic acid] | Total plasma cholesterol was lowered [1]: 15.5%
68 | – | CCCN(Cc1ccc(Oc2ccccc2)cc1)C(=O)CC1C(CC(=O)N(CCC)Cc2ccc(Oc3ccccc3)cc2)C(C(=O)O)C1C(=O)O (stereo not drawn) [Example 127C, (1α,2β,3β,4α)-1,2-Di-[N-propyl-N-(4-phenoxybenzyl)aminocarbonylmethyl]-cyclobutane-3,4-dicarboxylic acid] | –
80 | – | O=C(O)CC1C(CC(=O)O)C(C(=O)N(Cc2ccccc2)Cc2ccc(Oc3ccccc3)cc2)C1C(=O)N(Cc1ccccc1)Cc1ccc(Oc2ccccc2)cc1 (stereo not drawn) [Example 128F, (1α,2β,3β,4α)-1,2-Di{N-benzyl-N-[(4-phenoxy)benzyl]aminocarbonyl)cyclobutane-3,4-diacetic acid] | –
48 | – | CCCN(Cc1ccc(Oc2ccccc2)cc1)C(=S)C1C(C(=O)O)C(C(=O)O)C1C(=S)N(CCC)Cc1ccc(Oc2ccccc2)cc1 (stereo not drawn) [Example 130B, (1α,2β,3β,4α)-1,2-Di[N-propyl-N-(4-phenoxybenzyl)aminothiocarbonyl]cyclobutane-3,4-dicarboxylic acid] | –
– | 45* % | (1α,2β,3β,4α)-1,2-Di[N-propyl-N-(4-(3,4-methylenedioxyphenoxy)benzyl)aminocarbonyl]cyclobutane-3,4-carboxylic acid [Example 119C] | –
– | – | (1α,2β,3β,4α)-1,2-Di[N-propyl-N-(4-phenoxybenzyl)aminocarbonyl]-3,4-di[(hydroxyimino)methyl]-cyclobutane [Example 79B] | % Inhibition at 10 µM ([2]; 10 µM test compound, compared to controls with no test compound): 83%
– | 21* % | (1α,2β,3β,4α)-1,2-Di[N-propyl-N-(4-phenoxybenzyl)aminocarbonyl]cyclobutane-3,4-dicarboxylic acid mono-d-Norleucine amide [Example 112] | –
– | 31* % | (1α,2β,3β,4α)-1,2-Di[N-propyl-N-(4-phenoxybenzyl)aminocarbonyl]cyclobutane-3,4-dicarboxylic acid mono-l-Norleucine amide [Example 113] | –
– | – | (1α,2β,3β,4α)-1,2-Di[N-propyl-N-(4-phenoxybenzyl)aminocarbonyl]cyclobutane-3-phenoxycarbonyl-4-carboxylic acid [Example 105A] | % Inhibition at 1 µM ([2]; 1 µM): 48* %
– | – | (1α,2β,3β,4α)-1,2-Di[N-propyl-N-(4-phenoxybenzyl)aminocarbonyl]cyclobutane-3-phenoxycarbonyl-4-carboxylic acid [Example 105B] | % Inhibition at 1 µM ([2]; 1 µM): 57* %
